Data on three molecules can be found in PMC3742649 (Endocrine, 2013).

“Also recorded” adds a separate entry of the source. Where a SMILES comes first, the peptide text is derived from it.

The target in test [1] is T1, novel non-AT1, non-AT2 angiotensin binding site (neurolysin) (Rattus norvegicus, UniProt P42676). Nature of the test: Competition binding of 125I-Sar1,Ile8 Ang II in rat testis membranes. The settings on record: for inhibition of 125I-SI Ang II binding in testis at concentrations up to 1 mM: rat testis.
T1 sequence (P42676 38-704): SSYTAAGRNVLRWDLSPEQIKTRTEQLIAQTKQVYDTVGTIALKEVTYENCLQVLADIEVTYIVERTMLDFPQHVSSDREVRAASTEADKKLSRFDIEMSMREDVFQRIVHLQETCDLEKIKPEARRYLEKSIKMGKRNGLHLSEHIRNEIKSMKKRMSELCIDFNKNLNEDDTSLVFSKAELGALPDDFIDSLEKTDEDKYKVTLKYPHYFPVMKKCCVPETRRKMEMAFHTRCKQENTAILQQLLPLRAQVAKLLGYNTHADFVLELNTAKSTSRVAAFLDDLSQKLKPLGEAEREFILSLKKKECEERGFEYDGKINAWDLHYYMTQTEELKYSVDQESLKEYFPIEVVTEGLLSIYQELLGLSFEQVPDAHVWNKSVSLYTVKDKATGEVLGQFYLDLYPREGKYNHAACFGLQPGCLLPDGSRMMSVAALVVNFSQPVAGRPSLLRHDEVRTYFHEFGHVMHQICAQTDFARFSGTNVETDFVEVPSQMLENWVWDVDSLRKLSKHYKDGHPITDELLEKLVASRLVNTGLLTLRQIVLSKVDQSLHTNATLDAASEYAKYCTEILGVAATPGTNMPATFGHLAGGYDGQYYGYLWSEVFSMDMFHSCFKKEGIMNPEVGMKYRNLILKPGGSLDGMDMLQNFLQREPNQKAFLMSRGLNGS
Another test addresses neurolysin. As to conditions: read-out: KI for neurolysin; reported value; cited from earlier work.
For test [2], the target named is T1, novel non-AT1, non-AT2 angiotensin binding site (neurolysin). In words: Competition binding of 125I-Sar1,Ile8 Ang II in rat brain membranes. As to conditions: for inhibition of 125I-SI Ang II binding in brain at concentrations up to 1 mM: rat brain.
Setting [3] is: listed as Proline-Isoleucine dipeptide.

One may read the IC50 as the concentration at which inhibition is half-maximal. Take `CC[C@H](C)[C@H](NC(=O)[C@H](CCCN=C(N)N)NC(=O)[C@H](CCCN=C(N)N)NC(=O)[C@H](CC(C)C)NC(=O)[C@H](Cc1ccccc1)NC(=O)CNC(=O)CNC(=O)[C@@H](N)Cc1ccc(O)cc1)C(=O)O` [Dynorphin A (1–8)]: in test [1], the IC50 stood at 2.2 µM. This counts as single-digit micromolar.
In general, Ki refers to a dissociation constant, usually derived from enzyme kinetics or from competition with a known ligand. For `CC[C@H](C)[C@H](NC(=O)[C@@H]1CCCN1)C(=O)O` [Pro-Ile, proline-isoleucine dipeptide] (H-Pro-Ile-OH), the results for the “inhibition of 125I-SI Ang II binding in testis at concentrations up to 1 mM” value in test [1] and in test [1] (setting [3]) were “no inhibition; also recorded: failed to inhibit; also recorded: did not inhibit” and “inactive”, respectively. Moreover, the Ki at neurolysin was 90 µM. In addition, the “inhibition of 125I-SI Ang II binding in brain at concentrations up to 1 mM” value in test [2] is “no inhibition; also recorded: failed to inhibit; also recorded: did not inhibit”; in test [2] (setting [3]) it was “inactive”.
`CC[C@H](C)[C@H](NC(=O)[C@@H]1CCCN1C(=O)[C@H](Cc1c[nH]cn1)NC(=O)[C@@H](NC(=O)[C@H](Cc1ccc(O)cc1)NC(=O)[C@@H](NC(=O)[C@H](CCCN=C(N)N)NC(=O)CNC)C(C)C)[C@@H](C)CC)C(=O)O` [SI Ang II, Sar^1, Ile^8 angiotensin II]: the concentration for half-maximal inhibition (IC50) in test [1] (IC50 in testis, rat testis membranes, Figure 1 Panel A) turned out to be 0.126 µM; in test [2] (IC50 in brain, rat brain membranes, Figure 1 Panel A) it was 0.0822 µM.
